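Protocol summary: plate cells (96-well), add compound at 5 concentrations, incubate 48 h, interpolate endpoints linearly. TGI: total growth inhibition.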
Tests used:
Test in all cases: inhibition of tumour cell growth, NCI panel, 48 h
786-0 renal = tested on: 786-0 renal
A498 renal = tested on: A498 renal
A549 NSCLC = tested on: A549 NSCLC
ACHN renal = tested on: ACHN renal
BT-549 breast = tested on: BT-549 breast
CAKI-1 renal = tested on: CAKI-1 renal
CCRF-CEM leukemia = tested on: CCRF-CEM leukemia
COLO 205 colon = tested on: COLO 205 colon
DU-145 prostate = tested on: DU-145 prostate
EKVX NSCLC = tested on: EKVX NSCLC
HCC-2998 colon = tested on: HCC-2998 colon
HCT-116 colon = tested on: HCT-116 colon
HCT-15 colon = tested on: HCT-15 colon
HOP-62 NSCLC = tested on: HOP-62 NSCLC
HOP-92 NSCLC = tested on: HOP-92 NSCLC
HS 578T breast = tested on: HS 578T breast
IGROV1 ovarian = tested on: IGROV1 ovarian
K-562 leukemia = tested on: K-562 leukemia
KM12 colon = tested on: KM12 colon
LOX IMVI melanoma = tested on: LOX IMVI melanoma
M14 melanoma = tested on: M14 melanoma
MALME-3M melanoma = tested on: MALME-3M melanoma
MCF7 breast = tested on: MCF7 breast
MDA-MB-231 breast = tested on: MDA-MB-231 breast
MDA-MB-435 = tested on: MDA-MB-435
MDA-N = tested on: MDA-N
MOLT-4 leukemia = tested on: MOLT-4 leukemia
NCI-H226 lung = tested on: NCI-H226 lung
NCI-H23 lung = tested on: NCI-H23 lung
NCI-H460 lung = tested on: NCI-H460 lung
NCI-H522 lung = tested on: NCI-H522 lung
NCI/ADR-RES ovarian = tested on: NCI/ADR-RES ovarian
OVCAR-3 ovarian = tested on: OVCAR-3 ovarian
OVCAR-4 ovarian = tested on: OVCAR-4 ovarian
OVCAR-5 ovarian = tested on: OVCAR-5 ovarian
OVCAR-8 ovarian = tested on: OVCAR-8 ovarian
PC-3 prostate = tested on: PC-3 prostate
RPMI-8226 leukemia = tested on: RPMI-8226 leukemia
RXF 393 renal = tested on: RXF 393 renal
SF-268 CNS = tested on: SF-268 CNS
SF-295 CNS = tested on: SF-295 CNS
SF-539 CNS = tested on: SF-539 CNS
SK-MEL-2 melanoma = tested on: SK-MEL-2 melanoma
SK-MEL-28 melanoma = tested on: SK-MEL-28 melanoma
SK-MEL-5 melanoma = tested on: SK-MEL-5 melanoma
SK-OV-3 ovarian = tested on: SK-OV-3 ovarian
SN12C renal = tested on: SN12C renal
SNB-19 CNS = tested on: SNB-19 CNS
SNB-75 CNS = tested on: SNB-75 CNS
SR leukemia = tested on: SR leukemia
SW-620 colon = tested on: SW-620 colon
T-47D breast = tested on: T-47D breast
TK-10 renal = tested on: TK-10 renal
U251 CNS = tested on: U251 CNS
UACC-257 melanoma = tested on: UACC-257 melanoma
UACC-62 melanoma = tested on: UACC-62 melanoma
UO-31 renal = tested on: UO-31 renal
HL-60(TB) leukemia = tested on: HL-60(TB) leukemia
HT29 colon = tested on: HT29 colon

For `O=c1c2ccccc2oc2nc3n(c(=O)c12)CCCS3`, the TGI (786-0 renal) was over 100 µM, the TGI (A498 renal) was over 100 µM and the TGI (A549 NSCLC) was over 100 µM. The TGI (ACHN renal) was over 100 µM, the TGI (BT-549 breast) was over 100 µM and the TGI (CAKI-1 renal) was over 100 µM. It also gave a TGI (CCRF-CEM leukemia) of over 100 µM, a TGI (COLO 205 colon) of over 100 µM and a TGI (DU-145 prostate) of over 100 µM. It also gave a TGI (EKVX NSCLC) of over 100 µM, a TGI (HCC-2998 colon) of over 100 µM and a TGI (HCT-116 colon) of over 100 µM. For the same compound, the TGI (HCT-15 colon) was over 100 µM, the TGI (HOP-62 NSCLC) was over 100 µM and the TGI (HOP-92 NSCLC) was over 100 µM. For the same compound, the TGI (HS 578T breast) was over 100 µM, the TGI (IGROV1 ovarian) was over 100 µM and the TGI (K-562 leukemia) was over 100 µM. For the same compound, the TGI (KM12 colon) was over 100 µM, the TGI (LOX IMVI melanoma) was over 100 µM and the TGI (M14 melanoma) was over 100 µM. For the same compound, the TGI (MALME-3M melanoma) was over 100 µM, the TGI (MCF7 breast) was over 100 µM and the TGI (MDA-MB-231 breast) was over 100 µM. The TGI (MDA-MB-435) was over 100 µM, the TGI (MDA-N) was over 100 µM and the TGI (MOLT-4 leukemia) was over 100 µM. For the same compound, the TGI (NCI-H226 lung) was over 100 µM, the TGI (NCI-H23 lung) was over 100 µM and the TGI (NCI-H460 lung) was over 100 µM. For the same compound, the TGI (NCI-H522 lung) was over 100 µM, the TGI (NCI/ADR-RES ovarian) was over 100 µM and the TGI (OVCAR-3 ovarian) was over 100 µM. The TGI (OVCAR-4 ovarian) was over 100 µM, the TGI (OVCAR-5 ovarian) was over 100 µM and the TGI (OVCAR-8 ovarian) was over 100 µM. For the same compound, the TGI (PC-3 prostate) was over 100 µM, the TGI (RPMI-8226 leukemia) was over 100 µM and the TGI (RXF 393 renal) was over 100 µM. The TGI (SF-268 CNS) was over 100 µM, the TGI (SF-295 CNS) was over 100 µM and the TGI (SF-539 CNS) was over 100 µM. For the same compound, the TGI (SK-MEL-2 melanoma) was over 100 µM, the TGI (SK-MEL-28 melanoma) was over 100 µM and the TGI (SK-MEL-5 melanoma) was over 100 µM. The TGI (SK-OV-3 ovarian) was over 100 µM, the TGI (SN12C renal) was over 100 µM and the TGI (SNB-19 CNS) was over 100 µM. The TGI (SNB-75 CNS) was over 100 µM, the TGI (SR leukemia) was over 100 µM and the TGI (SW-620 colon) was over 100 µM. For the same compound, the TGI (T-47D breast) was over 100 µM, the TGI (TK-10 renal) was over 100 µM and the TGI (U251 CNS) was over 100 µM. The TGI (UACC-257 melanoma) was over 100 µM, the TGI (UACC-62 melanoma) was over 100 µM and the TGI (UO-31 renal) was 29.2 µM.

In the case of `C=C(C)[C@@H]1CC[C@]2(C(=O)O)CC[C@]3(C)[C@H](CC[C@@H]4[C@@]5(C)CC(=O)C(C)(C)[C@@H]5CC[C@]43C)[C@@H]12`, the TGI (786-0 renal) is reported as over 25 µM, the TGI (A498 renal) is reported as 17.2 µM and the TGI (A549 NSCLC) is reported as over 25 µM. For the same compound, the TGI (ACHN renal) was over 25 µM, the TGI (BT-549 breast) was over 25 µM and the TGI (CAKI-1 renal) was over 25 µM. For the same compound, the TGI (CCRF-CEM leukemia) was 2.86 µM, the TGI (COLO 205 colon) was 8.71 µM and the TGI (DU-145 prostate) was over 25 µM. The TGI (EKVX NSCLC) was over 25 µM, the TGI (HCC-2998 colon) was 12 µM and the TGI (HCT-116 colon) was 8.83 µM. The TGI (HCT-15 colon) was over 25 µM, the TGI (HL-60(TB) leukemia) was 1.61 µM and the TGI (HOP-62 NSCLC) was over 25 µM. The TGI (HOP-92 NSCLC) was over 25 µM, the TGI (HS 578T breast) was over 25 µM and the TGI (HT29 colon) was over 25 µM. The TGI (IGROV1 ovarian) was over 25 µM, the TGI (K-562 leukemia) was over 25 µM and the TGI (KM12 colon) was over 25 µM. For the same compound, the TGI (LOX IMVI melanoma) was over 25 µM, the TGI (M14 melanoma) was over 25 µM and the TGI (MALME-3M melanoma) was over 25 µM. The TGI (MCF7 breast) was over 25 µM, the TGI (MDA-MB-231 breast) was 14.3 µM and the TGI (MDA-MB-435) was over 25 µM. It also gave a TGI (MDA-N) of over 25 µM, a TGI (MOLT-4 leukemia) of 14.5 µM and a TGI (NCI-H226 lung) of over 25 µM. For the same compound, the TGI (NCI-H23 lung) was over 25 µM, the TGI (NCI-H460 lung) was 10.7 µM and the TGI (NCI-H522 lung) was 19.7 µM. It also gave a TGI (NCI/ADR-RES ovarian) of over 25 µM, a TGI (OVCAR-3 ovarian) of 21.4 µM and a TGI (OVCAR-4 ovarian) of over 25 µM. For the same compound, the TGI (OVCAR-5 ovarian) was over 25 µM, the TGI (OVCAR-8 ovarian) was over 25 µM and the TGI (PC-3 prostate) was 19.7 µM. It also gave a TGI (RPMI-8226 leukemia) of 11.6 µM, a TGI (RXF 393 renal) of over 25 µM and a TGI (SF-268 CNS) of over 25 µM. The TGI (SF-295 CNS) was over 25 µM, the TGI (SF-539 CNS) was 14.7 µM and the TGI (SK-MEL-2 melanoma) was 9.71 µM. It also gave a TGI (SK-MEL-28 melanoma) of over 25 µM, a TGI (SK-MEL-5 melanoma) of 13.3 µM and a TGI (SK-OV-3 ovarian) of over 25 µM. It also gave a TGI (SN12C renal) of 13.6 µM, a TGI (SNB-19 CNS) of over 25 µM and a TGI (SNB-75 CNS) of over 25 µM. For the same compound, the TGI (SR leukemia) was 12.3 µM, the TGI (SW-620 colon) was over 25 µM and the TGI (T-47D breast) was over 25 µM. It also gave a TGI (TK-10 renal) of over 25 µM, a TGI (U251 CNS) of over 25 µM and a TGI (UACC-257 melanoma) of 22.3 µM. For the same compound, the TGI (UACC-62 melanoma) was 6.66 µM and the TGI (UO-31 renal) was 16.4 µM.

From PubChem BioAssay (NCI)
